From publication PMC12197678, “Cvill6 and Cvill7: Potent and Selective Peptide Blockers of Kv1.2 Ion Channel Isolated from Mexican Scorpion Centruroides villegasi” (Toxins, 2025)
Positions of bridges follow the written chain, without caps; N, C: chain ends. Residues, ends and D or L forms follow the SMILES beside them.

Assays:
hKv1.5 = assay type: cell-based, human; details: 100 nM; ~3 min
From the text: (§1) For current recordings, Kv1.1, Kv1.2, and Kv1.5 were transiently expressed in CHO cells while for Kv11.1 a stable HEK293 cell line was used. To record Kv1.3 currents human peripheral T lymphocytes were activated with Phytohemagglutinin A (PHA) to boost Kv1.3 expression and Ca^2+-free intracellular solution to prevent the KCa3.1 channel opening. […] Appropriate voltage protocols were applied to record the K^+ currents from voltage-clamped cells in whole-cell configurations. Toxins were freshly dissolved in the bath solution supplemented with 0.1 mg/mL BSA and applied to the patched cells via a gravity-fed micro-perfusion system with an approximate flow rate of 200 µL/min.
Chinese hamster ovary (CHO) cells (generously provided by Yosef Yarden, Weizmann Institute of Science, Rehovot, Israel) or human embryonic kidney (HEK293) cells were cultured and maintained in Dulbecco’s modified Eagle medium (DMEM, Thermo Fisher Scientific, Waltham, MA, USA) supplemented with 2 mM L-glutamine, 10% fetal bovine serum (FBS), 100 µg/mL streptomycin, and 100 U/mL penicillin-g (Sigma-Aldrich, Budapest, Hungary) following standard culturing conditions [52]. For transient expression of ion channels, CHO cells were transfected using the Lipofectamine 2000 kit (Invitrogen, Waltham, MA, USA) following the manufacturer’s instructions with plasmids encoding specific ion channels, including hKv1.1 (KCNA1 gene), hKv1.2 (KCNA2 gene), and hKv1.5 (KCNA5 gene) in a pCMV6-AC-GFP vector (OriGene Technologies), hKCa2.2 (KCNN2 gene) in a pCDN3 plasmid (for this transfection a GFP containing plasmid was co-transfected, courtesy of Bernard Attali, Tel Aviv University, Tel Aviv, Israel), and hKCa3.1 (KCNN4 gene) in a pEGFP-C1 vector (a kind gift by H. Wulff, University of California, Davis, CA, USA). […] Electrophysiological recordings were typically conducted 24 to 48 h after transfection. […]
Whole-cell currents were recorded using the patch-clamp technique in voltage-clamp mode, following standard protocols [73]. […]

hKv1.1 = target: T1, hKv1.1 (Homo sapiens, UniProt Q09470); assay: cell-based; assay type: cell-based
T1 construct: host or cells: CHO cells, transient transfection (Lipofectamine 2000)
From the text: as §1
(§2) Chinese hamster ovary (CHO) cells (generously provided by Yosef Yarden, Weizmann Institute of Science, Rehovot, Israel) or human embryonic kidney (HEK293) cells were cultured and maintained in Dulbecco’s modified Eagle medium (DMEM, Thermo Fisher Scientific, Waltham, MA, USA) supplemented with 2 mM L-glutamine, 10% fetal bovine serum (FBS), 100 µg/mL streptomycin, and 100 U/mL penicillin-g (Sigma-Aldrich, Budapest, Hungary) following standard culturing conditions [52]. For transient expression of ion channels, CHO cells were transfected using the Lipofectamine 2000 kit (Invitrogen, Waltham, MA, USA) following the manufacturer’s instructions with plasmids encoding specific ion channels, including hKv1.1 (KCNA1 gene), hKv1.2 (KCNA2 gene), and hKv1.5 (KCNA5 gene) in a pCMV6-AC-GFP vector (OriGene Technologies), hKCa2.2 (KCNN2 gene) in a pCDN3 plasmid (for this transfection a GFP containing plasmid was co-transfected, courtesy of Bernard Attali, Tel Aviv University, Tel Aviv, Israel), and hKCa3.1 (KCNN4 gene) in a pEGFP-C1 vector (a kind gift by H. Wulff, University of California, Davis, CA, USA). […] Electrophysiological recordings were typically conducted 24 to 48 h after transfection.
(§3) Whole-cell currents were recorded using the patch-clamp technique in voltage-clamp mode, following standard protocols [73]. […] Micropipettes were made from GC150F-7.5 borosilicate capillaries (Harvard Apparatus Co., Holliston, MA, USA) using a Sutter P2000 laser puller with tip resistance generally ranging from 3–6 MΩ in the bath solution. Only recordings with a leak current at the holding potential (Vh) of <10% of the peak current at the test potential were included in the data analysis. All recordings were performed at room temperature (20–25 °C). Control and test solutions were perfused to the cells via a gravity-driven micro-perfusion system and AutoMate Perfusion Pencil Multi-Barrel Manifold Tip (AutoMate Scientific, Berkeley, CA, USA), with an approximate flow rate of 200 µL/min, and the excess amount of bath solution was continuously removed from the recording chamber using vacuum suction.
(§4) The duration of depolarization pulses was 15 ms for Kv1.3 and 50 ms for Kv1.1 and Kv1.5. However, for Kv1.2, 15–500 ms-long pulses were used to achieve the saturated peak current due to the variable activation kinetics of this channel [74].

hKv11.1 (hERG1) = assay: Whole-cell patch-clamp, hKv11.1 current in stable HEK293 cells; assay type: cell-based, human; details: 100 nM; ~3 min
Procedure: Appropriate voltage protocols were applied to record the K^+ currents from voltage-clamped cells in whole-cell configurations. Toxins were freshly dissolved in the bath solution supplemented with 0.1 mg/mL BSA and applied to the patched cells via a gravity-fed micro-perfusion system with an approximate flow rate of 200 µL/min.
HEK 293 cells stably expressing mKCa1.1 1 (BKCa, Kcnma1 gene, generously provided by C. Beeton from Baylor College of Medicine, Houston, TX, USA) or hKv11.1 (hERG1, KCNH2 gene, gifted by H. Wulff from University of California, Davis, CA, USA) were utilized in this study.
Whole-cell currents were recorded using the patch-clamp technique in voltage-clamp mode, following standard protocols [73]. […] Micropipettes were made from GC150F-7.5 borosilicate capillaries (Harvard Apparatus Co., Holliston, MA, USA) using a Sutter P2000 laser puller with tip resistance generally ranging from 3–6 MΩ in the bath solution. Only recordings with a leak current at the holding potential (Vh) of <10% of the peak current at the test potential were included in the data analysis. All recordings were performed at room temperature (20–25 °C). […]

hKCa3.1 (IKCa1, SK4) = target: T2, hKCa3.1 (IKCa1, SK4) (Homo sapiens, UniProt O15554); assay: Whole-cell patch-clamp, hKCa3.1 current in transfected CHO cells; assay type: cell-based
T2 construct: expressed in transfected cells; host or cells: CHO cells, transient transfection (Lipofectamine 2000); plasmid a gift of H. Wulff
From the text: The scorpion toxins from the α-KTx 2 family also modulate the function of Ca^2+-activated potassium channels, in addition to Kv1 channels. Therefore, we investigated the activity of Cvill6 and Cvill7 toxins on three different types of Ca^2+-activated K^+ channels: (1) hKCa2.2 (SK2), the small-conductance Ca^2+-activated channel; (2) hKCa3.1 (IKCa1, SK4), the intermediate-conductance Ca^2+-activated channels, mainly expressed in T lymphocytes; and (3) mKCa1.1 (BK or MaxiK), the large-conductance voltage- and Ca^2+- activated channel of mice. Appropriate depolarization protocols were applied to record the K^+ current through respective KCa channels as shown in the inset of each panel in Figure 6A–C. […] Cvill6 reduced ~40% of the KCa3.1 current (Figure 6C), where the RCF value was 0.73 ± 0.05 (n = 5) at 100 nM (Figure 6D). On the other hand, Cvill7 inhibited ~25% of the current at the same concentration (Figure 6C), with an RCF value 0.84 ± 0.03 (n = 5) (Figure 6D). The time course of inhibition of KCa3.1 currents at 100 nM of Cvill6 or Cvill7 is shown in Figure 6E and Figure 6F, respectively. The normalized peak currents (see Section 2.4 or Section 5 for details) for individual cells (n = 5) were averaged at each time point and plotted as a function of time. […] The recovery from the block with Cvill6 to the initial peak current occurred in 4–5 consecutive traces (~0.8 min) and in the case of Cvill7 it took only 2–3 consecutive traces (~0.5 min) after perfusing the cell with toxin-lacking solution. […] The quantity of native toxins was insufficient to conduct the full dose–response curves at this high concentration range (see above).
Chinese hamster ovary (CHO) cells (generously provided by Yosef Yarden, Weizmann Institute of Science, Rehovot, Israel) or human embryonic kidney (HEK293) cells were cultured and maintained in Dulbecco’s modified Eagle medium (DMEM, Thermo Fisher Scientific, Waltham, MA, USA) supplemented with 2 mM L-glutamine, 10% fetal bovine serum (FBS), 100 µg/mL streptomycin, and 100 U/mL penicillin-g (Sigma-Aldrich, Budapest, Hungary) following standard culturing conditions. For transient expression of ion channels, CHO cells were transfected using the Lipofectamine 2000 kit (Invitrogen, Waltham, MA, USA) following the manufacturer’s instructions with plasmids encoding specific ion channels, including hKv1.1 (KCNA1 gene), hKv1.2 (KCNA2 gene), and hKv1.5 (KCNA5 gene) in a pCMV6-AC-GFP vector (OriGene Technologies), hKCa2.2 (KCNN2 gene) in a pCDN3 plasmid (for this transfection a GFP containing plasmid was co-transfected, courtesy of Bernard Attali, Tel Aviv University, Tel Aviv, Israel), and hKCa3.1 (KCNN4 gene) in a pEGFP-C1 vector (a kind gift by H. Wulff, University of California, Davis, CA, USA). Cells expressing GFP were identified using a Nikon TE 2000U fluorescence microscope (Nikon, Tokyo, Japan) with bandpass filters set to 455–495 nm for excitation and 515–555 nm for emission. Electrophysiological recordings were typically conducted 24 to 48 h after transfection.
The extracellular solution (bath solution) for both Kv and KCa channels consisted of 145 mM NaCl, 5 mM KCl, 2.5 mM CaCl2, 1 mM MgCl2, 10 mM HEPES, and 5.5 mM glucose, pH 7.35, and osmolarity between 302 and 308 mOsM/L. For positive control solutions containing various concentrations of tetraethylammoniums (TEA^+), Na^+ was substituted with TEA-Cl in equimolar concentration in the bath solution and all other ingredients remained unchanged. To avoid toxin adsorption onto the plastic surfaces of the perfusion system, 0.1 mg/mL of bovine serum albumin (BSA, Sigma-Aldrich, Budapest, Hungary) was also added into all bath solutions prior to the patch-clamp assay. […]

hKCa2.2 (SK2) = assay: Whole-cell patch-clamp, hKCa2.2 current in transfected CHO cells; assay type: cell-based, human; details: 100 nM; ~3 min
From the text: The scorpion toxins from the α-KTx 2 family also modulate the function of Ca^2+-activated potassium channels, in addition to Kv1 channels. Therefore, we investigated the activity of Cvill6 and Cvill7 toxins on three different types of Ca^2+-activated K^+ channels: (1) hKCa2.2 (SK2), the small-conductance Ca^2+-activated channel; (2) hKCa3.1 (IKCa1, SK4), the intermediate-conductance Ca^2+-activated channels, mainly expressed in T lymphocytes; and (3) mKCa1.1 (BK or MaxiK), the large-conductance voltage- and Ca^2+- activated channel of mice. […] The quantity of native toxins was insufficient to conduct the full dose–response curves at this high concentration range (see above).
Chinese hamster ovary (CHO) cells (generously provided by Yosef Yarden, Weizmann Institute of Science, Rehovot, Israel) or human embryonic kidney (HEK293) cells were cultured and maintained in Dulbecco’s modified Eagle medium (DMEM, Thermo Fisher Scientific, Waltham, MA, USA) supplemented with 2 mM L-glutamine, 10% fetal bovine serum (FBS), 100 µg/mL streptomycin, and 100 U/mL penicillin-g (Sigma-Aldrich, Budapest, Hungary) following standard culturing conditions. […] Cells expressing GFP were identified using a Nikon TE 2000U fluorescence microscope (Nikon, Tokyo, Japan) with bandpass filters set to 455–495 nm for excitation and 515–555 nm for emission. […]

hKv1.2 = target: T3, hKv1.2 (Homo sapiens, UniProt P16389); assay: Whole-cell patch-clamp, hKv1.2 current in transiently transfected CHO cells; assay type: cell-based
T3 construct: host or cells: CHO cells, transient transfection (Lipofectamine 2000)
T3 sequence (P16389 whole entry): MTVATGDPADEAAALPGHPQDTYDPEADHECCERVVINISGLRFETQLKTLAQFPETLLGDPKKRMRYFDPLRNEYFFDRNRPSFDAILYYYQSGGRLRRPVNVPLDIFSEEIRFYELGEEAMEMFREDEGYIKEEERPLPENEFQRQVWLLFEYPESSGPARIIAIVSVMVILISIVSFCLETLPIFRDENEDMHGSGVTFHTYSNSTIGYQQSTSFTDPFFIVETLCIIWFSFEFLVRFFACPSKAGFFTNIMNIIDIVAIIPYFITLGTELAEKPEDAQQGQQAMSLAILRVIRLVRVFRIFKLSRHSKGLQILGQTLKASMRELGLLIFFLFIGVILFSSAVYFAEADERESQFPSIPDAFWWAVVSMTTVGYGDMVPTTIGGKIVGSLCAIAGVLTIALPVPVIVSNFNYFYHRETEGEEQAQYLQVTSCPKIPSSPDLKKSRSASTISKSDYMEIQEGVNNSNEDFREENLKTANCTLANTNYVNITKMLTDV
From the text: as §1, §2, §3, §4

T1 sequence (Q09470 whole entry): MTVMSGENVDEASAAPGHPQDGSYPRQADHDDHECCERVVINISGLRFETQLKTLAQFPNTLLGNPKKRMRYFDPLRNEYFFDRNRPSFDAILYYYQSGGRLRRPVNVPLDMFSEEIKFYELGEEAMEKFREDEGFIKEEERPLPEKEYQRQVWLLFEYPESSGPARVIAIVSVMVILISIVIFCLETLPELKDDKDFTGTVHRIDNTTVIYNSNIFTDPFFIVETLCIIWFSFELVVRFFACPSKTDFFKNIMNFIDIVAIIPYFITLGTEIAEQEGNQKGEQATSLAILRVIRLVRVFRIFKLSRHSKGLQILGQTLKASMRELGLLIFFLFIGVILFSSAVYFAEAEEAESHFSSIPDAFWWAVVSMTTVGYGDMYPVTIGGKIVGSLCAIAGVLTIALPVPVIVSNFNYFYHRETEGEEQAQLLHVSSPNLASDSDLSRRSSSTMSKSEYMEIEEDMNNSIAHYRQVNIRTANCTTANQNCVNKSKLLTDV
T2 sequence (O15554 whole entry): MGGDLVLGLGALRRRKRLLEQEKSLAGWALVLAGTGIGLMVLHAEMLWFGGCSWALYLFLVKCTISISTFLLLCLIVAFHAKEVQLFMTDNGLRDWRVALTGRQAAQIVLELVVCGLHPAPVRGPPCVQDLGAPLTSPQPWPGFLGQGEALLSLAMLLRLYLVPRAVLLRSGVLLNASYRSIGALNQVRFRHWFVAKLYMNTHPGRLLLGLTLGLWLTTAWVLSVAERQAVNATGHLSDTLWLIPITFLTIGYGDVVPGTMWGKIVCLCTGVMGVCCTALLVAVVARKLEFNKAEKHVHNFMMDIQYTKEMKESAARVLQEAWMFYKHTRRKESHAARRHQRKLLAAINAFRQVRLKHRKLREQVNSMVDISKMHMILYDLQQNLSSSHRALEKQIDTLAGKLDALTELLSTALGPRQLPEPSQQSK

## CC[C@H](C)[C@H](NC(=O)[C@H](Cc1ccccc1)NC(=O)[C@@H](N)[C@@H](C)O)C(=O)N[C@@H](CC(N)=O)C(=O)N[C@H](C(=O)N[C@@H](CCCCN)C(=O)N[C@H]1CSSC[C@@H]2NC(=O)[C@H](CCCCN)NC(=O)CNC(=O)CNC(=O)[C@H](C)NC(=O)[C@H](Cc3c[nH]cn3)NC(=O)[C@@H]3CCCN3C(=O)CNC(=O)[C@H](Cc3ccc(O)cc3)NC(=O)[C@H](CC(C)C)NC(=O)[C@H](CC(=O)O)NC(=O)[C@H](CCCCN)NC(=O)[C@@H]3CSSC[C@@H](C(=O)N[C@@H](Cc4ccc(O)cc4)C(=O)N[C@@H](CC(N)=O)C(=O)N[C@@H](CC(N)=O)C(N)=O)NC(=O)[C@H](CCCCN)NC(=O)[C@H](CSSC[C@H](NC(=O)[C@H](CCC(N)=O)NC(=O)[C@H](CCCCN)NC(=O)[C@@H]4CCCN4C(=O)[C@H](CO)NC(=O)[C@H]([C@@H](C)O)NC1=O)C(=O)N[C@@H](CC(C)C)C(=O)N[C@@H](CCCCN)C(=O)N1CCC[C@H]1C(=O)N3)NC(=O)[C@H](CCCCN)NC(=O)CNC(=O)[C@H](CC(N)=O)NC(=O)[C@H](CCSC)NC2=O)C(C)C [Cvill7] (H-TFINVKCTSPKQCLKPCKDLYGPHAGGKCMNGKCKCYNN-NH2; disulfide 7-29, 13-34, 17-36; N-terminus and C-terminus assumed)
hKv1.5
  effect on hKv1.5 current: did not show any effect
hKv1.1; 100 nM, representative record, equilibrium block
  reduction of hKv1.1 peak current: ~ 32%
hKv1.1; CHO, read-out: estimated IC50
  potency estimated from few doses: ~192 nM
hKv1.1; CHO, read-out: inhibition of Kv1.1 current
  inhibition at 0.1 µM: ~34%
hKv11.1 (hERG1)
  effect on hKv11.1 (hERG1) current: did not show any effect
hKCa3.1 (IKCa1, SK4); 100 nM, then toxin-free solution
  reversibility of KCa3.1 inhibition: inhibit the KCa3.1 channel reversibly with quick association and dissociation kinetics
hKCa3.1 (IKCa1, SK4); 100 nM, 5–6 consecutive traces, n = 5
  time to steady-state block of KCa3.1: ~ 1 min
hKCa3.1 (IKCa1, SK4); 100 nM, representative record
  reduction of KCa3.1 current: ~ 25%
hKCa3.1 (IKCa1, SK4); CHO, 100 nM, read-out: inhibition of KCa3.1 current
  inhibition at 0.1 µM: ~16%
hKCa3.1 (IKCa1, SK4); CHO, KCa3.1, estimated from a single concentration (100 nM), bimolecular 1:1 interaction, read-out: estimated IC50
  potency estimated from few doses: ~527 nM
hKCa3.1 (IKCa1, SK4); KCa3.1, 100 nM, mean ± SEM, n = 5
  remaining current fraction (RCF, I/I0): 0.84 ± 0.03
hKCa3.1 (IKCa1, SK4); toxin-lacking solution after 100 nM, n = 5
  time to recovery from KCa3.1 block: ~ 0.5 min
hKCa2.2 (SK2)
  effect on KCa2.2 current: Neither Cvill6 nor Cvill7 showed any effect
hKv1.2
  IC50: 0.016 ± 0.00156 nM
hKv1.2; 100 pM
  time to apparent saturation of Kv1.2 block: 7 to 8 min
hKv1.2; 100 pM, n = 4
  loss of Kv1.2 current at saturation: 96 ± 1.4%
hKv1.2; CHO, 1 nM, representative record, read-out: inhibition of hKv1.2 current
  inhibition at 0.001 µM: > 97%
hKv1.2; CHO, Kv1.2, calculated from τoff, 100 pM Cvill7 (n = 4) or 100 nM Cvill6 (n = 5)
  koff: 0.00017 s⁻¹
hKv1.2; CHO, Kv1.2, calculated from τon and τoff, 100 pM Cvill7 (n = 4) or 100 nM Cvill6 (n = 5)
  kon: 1e+08 ± 1.5e+07 M⁻¹ s⁻¹
hKv1.2; IC50 ratio
  selectivity for Kv1.2 over Kv1.3: ~ 450 fold
hKv1.2; KCa3.1 IC50 estimated from a single concentration
  selectivity for Kv1.2 over KCa3.1: > 32,000 fold
hKv1.2; Kv1.1 IC50 estimated from a single concentration
  selectivity for Kv1.2 over Kv1.1: ~ 12,000 fold
hKv1.2; Kv1.2, 100 pM, representative fit (Figure S5A)
  τon, representative fit: 75.3 s
hKv1.2; Kv1.2, 100 pM, single-exponential fits cell-by-cell, mean ± SEM, n = 4
  τon (development of block): 104 ± 15 s
hKv1.2; Kv1.2, Hill equation fit of RCF values
  Hill coefficient (H): 1.03
hKv1.2; Kv1.2, after 100 pM, mean ± SEM, n = 4
  τoff (wash-out): 5978 ± 538 s
hKv1.2; Kv1.2, after 100 pM, representative fit (Figure S5A)
  τoff, representative fit: 7380 s
hKv1.2; Kv1.2 vs several other ion channels
  selectivity over several other ion channels: three orders of magnitude selectivity over several other ion channels
hKv1.2; inferred from Hill coefficients close to 1 and single-exponential kinetics
  mode of block: pore blockers that interact with channels with 1:1 stoichiometry in a bimolecular interaction
hKv1.2; toxin-free solution for ~15 min after 100 pM
  recovery of blocked Kv1.2 current: just one-fifth of the blocked current recovered
hKv1.2; wash-out with toxin-free solution
  reversibility of Kv1.2 block: virtually irreversible inhibitor of Kv1.2
